Data from US20020076393A1, “Method for stimulation of defensin production” (MAGAININ PHARMACEUTICALS, INC., priority 1998, published 2002).

Columns and labels:
[1] = tested on: defensin production in MDBK cells; assay: Defensin induction in MDBK cells (RNA-PCR / QPCR of β-defensin RNA); type: cell-based, bovine; details: for effect on defensin production: at concentrations as high as fifty micrograms per milliliter
Procedure: Cell Culture: MDBK (Madin-Darby Bovine Kidney) cells were obtained from the ATCC (Rockville, Md.) and were maintained in growth medium consisting of Eagle's modified essential media with Earle's balanced salt solution, 10% horse serum, 0.10 mM non-essential amino acids and no antibiotics. For stimulation experiments, cells were plated into six well tissue culture plates and maintained for three days in growth medium until cells were almost confluent. The medium was then changed to serum-free epithelial cell growth medium (Clonetics, San Diego, Calif.) and the test material was added to the dish. Twenty-four hours later, the medium was withdrawn and cells were rinsed with phosphate-buffered saline. Total RNA was then isolated using Trizol reagent (Gibco/BRL, Grand Island, N.Y.) according to protocols supplied by the manufacturer. RNA was quantified by measuring the OD260 of each sample.
RNA-Polymerase Chain Reaction: Total RNA was treated with DNase prior to reverse transcription and PCR. The DNase was heat inactivated at 65° C. in the presence of EDTA for ten minutes. Reverse transcription and PCR were performed essentially as described for the GeneAmp RNA PCR kit (Perkin Elmer, Foster City, Calif.). Briefly, approximately 250 nanograms of total RNA was primed with polydT and reverse transcribed with Murine Leukemia Virus reverse transcriptase in a total volume of 16 μL at room temperature for ten minutes and then at 42° C. for an additional fifteen minutes. The reverse transcriptase was heat inactivated at 99° C. for five minutes and the reaction was chilled to 4 degrees C. This reverse transcription reaction was then split in half: one portion was used for amplification of the target defensin RNA, and the other was treated in parallel to determine the β-tubulin RNA level as a control. Additional reagents necessary for the PCR reaction, including appropriate synthetic DNA primers;
were added after splitting the reverse transcription reactions to bring the reaction volumes to 40 μL. The reactions were then subjected to thermal cycling as follows: 95° C. for one minute, 52° C. for one minute, 72° C. for one minute for 30 cycles followed by a single 72° C. incubation for fifteen minutes to allow for extension. The expected 200 base pair β-defensin PCR product was measured by gel electrophoresis or QPCR (Quantitative PCR).
Product Capture for QPCR System: 10 μL of the final PCR mixture was combined with 15 μL of strepavidin bead slurry (Perkin-Elmer, Foster City, Calif.), 21 μL H2O and 4 μL of 10× PCR buffer to yield a 50 μL binding reaction. The binding reactions were incubated at room temperature for fifteen minutes with occasional agitation. One ml of QPCR assay buffer was then added to the reaction. The quantity of PCR product was subsequently measured with the Perkin-Elmer QPCR instrument (Perkin-Elmer, Foster City, Calif.). The amount of defensin product was normalized to endogenous expression in MDBK cells in the absence of any experimental agent.

[2] = tested on: defensin production in epithelial cells; assay: Defensin inducing effect of isoleucine analogs in epithelial cells (FIGS. 6-9); type: cell-based; details: for defensin induction: epithelial cells, FIGS. 6, 7 and 8
[3] = tested on: defensin production in HT-29 cells; assay: Defensin induction in the human colon epithelial cell line HT-29; type: cell-based; details: FIG. 5

`CC[C@@H](C)[C@H](N)C(=O)O` [alloisoleucine] was tested, and the “effectiveness as inducer of defensin production compared with isoleucine” value ([1]; FIG. 4) was “not as effective an inducer”.
In the case of `CC[C@H](C)C(=O)C(=O)O` [alpha-keto-methylvalerate], the defensin induction [2] is reported as “inducers of defensin production”.
In the case of `CC[C@H](C)[C@H](N)C(=O)NO` [isoleucine hydroxamate], the defensin induction [2] is reported as “inducers of defensin production”.
With `CC(C)[C@H](N)C(=O)O` [L-valine] the “effect on defensin production” value [1] was “no effect” and the “stimulation of defensin expression, concentrations compared with isoleucine” value ([2]; FIG. 9) was “stimulates defensin expression at concentrations that are substantially higher than those needed for isoleucine”.
With `CC[C@H](C)[C@H](N)C(=O)O` [L-isoleucine] the “dose-response effect on defensin production” value ([1]; FIG. 2) was “dose-dependent effect”, the “concentration increasing defensin production, fold less than that of D-isoleucine” value ([1]; L-isoleucine versus D-isoleucine, FIGS. 2 and 3) was “fifty to one-hundred” and the defensin induction [3] was “defensin inducing property”.
With `COC(=O)[C@@H](N)Cc1ccc(O)cc1` [L-tyrosine methyl ester, reference compound] the “effect on defensin production” value [1] was “no effect”.
